Source: ChEMBL document CHEMBL1201862, “PubChem BioAssay data set” (2004)
Calls of active or inactive are those of the source.

Key:
[1] = molecular target: Cystic fibrosis transmembrane conductance regulator/Golgi-associated PDZ and coiled-coil motif-containing protein (Homo sapiens, UniProt P13569+Q9HD26); assay: potency against CAL PDZ-peptide interaction – biochemical, fluorescence polarization, Cerulean-tagged CAL PDZ, cherry-picks, dose response (AID 504773)
[2] = general mammalian cell viability loss – activator set, cherry-pick, cytotoxicity control for miR-122 modulator project, dose response (AID 720690); assay type: functional, cell-based;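 further: HEK293T human cells scored for general mammalian cytotoxicity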
HEK293 = assay: cells; assay type: functional, cell-based; settings: Homo sapiens
[3] = molecular target: T1, Lysine-specific demethylase 4C (Homo sapiens, UniProt Q9H3R0); assay: inhibition of JMJD2C H3K9me3 demethylation – biochemical, DELFIA europium, cherry-picked samples, dose response (AID 488835); assay type: functional
T1 sequence (Q9H3R0 whole entry): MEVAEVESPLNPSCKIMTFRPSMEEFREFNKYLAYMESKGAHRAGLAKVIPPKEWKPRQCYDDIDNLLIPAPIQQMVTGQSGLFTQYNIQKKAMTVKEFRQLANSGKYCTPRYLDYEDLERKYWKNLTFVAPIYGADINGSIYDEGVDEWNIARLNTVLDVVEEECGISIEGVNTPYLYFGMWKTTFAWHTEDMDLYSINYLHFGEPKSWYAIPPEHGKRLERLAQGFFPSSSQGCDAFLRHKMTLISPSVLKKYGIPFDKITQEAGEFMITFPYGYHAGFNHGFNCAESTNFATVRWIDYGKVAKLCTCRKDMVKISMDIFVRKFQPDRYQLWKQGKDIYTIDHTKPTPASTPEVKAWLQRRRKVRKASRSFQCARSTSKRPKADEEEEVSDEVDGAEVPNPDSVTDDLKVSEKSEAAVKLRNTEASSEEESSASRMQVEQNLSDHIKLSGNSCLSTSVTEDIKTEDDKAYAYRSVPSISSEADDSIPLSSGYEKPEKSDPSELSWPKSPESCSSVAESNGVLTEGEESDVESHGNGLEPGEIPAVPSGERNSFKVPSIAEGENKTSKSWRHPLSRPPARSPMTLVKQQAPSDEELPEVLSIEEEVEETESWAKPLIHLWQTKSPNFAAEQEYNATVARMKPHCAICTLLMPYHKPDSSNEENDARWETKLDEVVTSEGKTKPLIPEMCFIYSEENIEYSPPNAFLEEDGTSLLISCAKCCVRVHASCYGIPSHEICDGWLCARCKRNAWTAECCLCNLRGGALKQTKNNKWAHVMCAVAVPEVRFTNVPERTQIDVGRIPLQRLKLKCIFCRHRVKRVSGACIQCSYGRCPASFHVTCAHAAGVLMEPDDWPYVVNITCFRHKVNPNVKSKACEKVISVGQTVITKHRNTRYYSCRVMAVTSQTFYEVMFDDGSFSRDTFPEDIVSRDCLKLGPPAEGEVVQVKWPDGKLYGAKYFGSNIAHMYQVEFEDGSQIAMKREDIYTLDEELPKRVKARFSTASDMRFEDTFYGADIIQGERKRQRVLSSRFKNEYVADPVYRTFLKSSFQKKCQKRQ

Hexokinase HKDC1 = molecular target: T2, Hexokinase HKDC1 (Homo sapiens, UniProt Q2TB90); assay: activation of HKDC1 glucose phosphorylation – biochemical, W721R variant, dose response (AID 504730); assay type: functional
T2 sequence (Q2TB90 whole entry): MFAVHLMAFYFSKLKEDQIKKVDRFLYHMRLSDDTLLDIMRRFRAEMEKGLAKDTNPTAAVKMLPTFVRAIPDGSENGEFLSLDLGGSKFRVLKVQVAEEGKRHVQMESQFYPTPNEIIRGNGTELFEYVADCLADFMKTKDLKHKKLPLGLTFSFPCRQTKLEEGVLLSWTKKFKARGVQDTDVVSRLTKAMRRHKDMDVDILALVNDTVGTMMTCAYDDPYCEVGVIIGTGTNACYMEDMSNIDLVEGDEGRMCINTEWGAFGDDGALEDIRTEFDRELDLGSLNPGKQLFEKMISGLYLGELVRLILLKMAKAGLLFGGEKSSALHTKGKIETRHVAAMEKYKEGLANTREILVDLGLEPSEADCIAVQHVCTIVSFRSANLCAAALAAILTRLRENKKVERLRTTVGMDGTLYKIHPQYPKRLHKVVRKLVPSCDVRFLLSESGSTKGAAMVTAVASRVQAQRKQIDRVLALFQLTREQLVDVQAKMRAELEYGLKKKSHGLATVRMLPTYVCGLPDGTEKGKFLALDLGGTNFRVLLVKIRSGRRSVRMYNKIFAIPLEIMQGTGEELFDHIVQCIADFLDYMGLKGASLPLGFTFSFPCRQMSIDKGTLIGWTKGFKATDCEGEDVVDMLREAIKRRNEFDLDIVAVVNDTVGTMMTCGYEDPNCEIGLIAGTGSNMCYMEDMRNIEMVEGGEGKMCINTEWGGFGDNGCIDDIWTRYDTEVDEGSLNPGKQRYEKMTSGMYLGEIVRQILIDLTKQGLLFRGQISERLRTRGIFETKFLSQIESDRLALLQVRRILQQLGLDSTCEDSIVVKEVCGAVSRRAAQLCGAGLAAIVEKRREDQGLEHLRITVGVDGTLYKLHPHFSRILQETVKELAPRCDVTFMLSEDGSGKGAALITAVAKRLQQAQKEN

Chain of Cystic fibrosis transmembrane conductance regulator/Golgi-associated PDZ and coiled-coil motif-containing protein (P13569 whole entry, other chains not shown): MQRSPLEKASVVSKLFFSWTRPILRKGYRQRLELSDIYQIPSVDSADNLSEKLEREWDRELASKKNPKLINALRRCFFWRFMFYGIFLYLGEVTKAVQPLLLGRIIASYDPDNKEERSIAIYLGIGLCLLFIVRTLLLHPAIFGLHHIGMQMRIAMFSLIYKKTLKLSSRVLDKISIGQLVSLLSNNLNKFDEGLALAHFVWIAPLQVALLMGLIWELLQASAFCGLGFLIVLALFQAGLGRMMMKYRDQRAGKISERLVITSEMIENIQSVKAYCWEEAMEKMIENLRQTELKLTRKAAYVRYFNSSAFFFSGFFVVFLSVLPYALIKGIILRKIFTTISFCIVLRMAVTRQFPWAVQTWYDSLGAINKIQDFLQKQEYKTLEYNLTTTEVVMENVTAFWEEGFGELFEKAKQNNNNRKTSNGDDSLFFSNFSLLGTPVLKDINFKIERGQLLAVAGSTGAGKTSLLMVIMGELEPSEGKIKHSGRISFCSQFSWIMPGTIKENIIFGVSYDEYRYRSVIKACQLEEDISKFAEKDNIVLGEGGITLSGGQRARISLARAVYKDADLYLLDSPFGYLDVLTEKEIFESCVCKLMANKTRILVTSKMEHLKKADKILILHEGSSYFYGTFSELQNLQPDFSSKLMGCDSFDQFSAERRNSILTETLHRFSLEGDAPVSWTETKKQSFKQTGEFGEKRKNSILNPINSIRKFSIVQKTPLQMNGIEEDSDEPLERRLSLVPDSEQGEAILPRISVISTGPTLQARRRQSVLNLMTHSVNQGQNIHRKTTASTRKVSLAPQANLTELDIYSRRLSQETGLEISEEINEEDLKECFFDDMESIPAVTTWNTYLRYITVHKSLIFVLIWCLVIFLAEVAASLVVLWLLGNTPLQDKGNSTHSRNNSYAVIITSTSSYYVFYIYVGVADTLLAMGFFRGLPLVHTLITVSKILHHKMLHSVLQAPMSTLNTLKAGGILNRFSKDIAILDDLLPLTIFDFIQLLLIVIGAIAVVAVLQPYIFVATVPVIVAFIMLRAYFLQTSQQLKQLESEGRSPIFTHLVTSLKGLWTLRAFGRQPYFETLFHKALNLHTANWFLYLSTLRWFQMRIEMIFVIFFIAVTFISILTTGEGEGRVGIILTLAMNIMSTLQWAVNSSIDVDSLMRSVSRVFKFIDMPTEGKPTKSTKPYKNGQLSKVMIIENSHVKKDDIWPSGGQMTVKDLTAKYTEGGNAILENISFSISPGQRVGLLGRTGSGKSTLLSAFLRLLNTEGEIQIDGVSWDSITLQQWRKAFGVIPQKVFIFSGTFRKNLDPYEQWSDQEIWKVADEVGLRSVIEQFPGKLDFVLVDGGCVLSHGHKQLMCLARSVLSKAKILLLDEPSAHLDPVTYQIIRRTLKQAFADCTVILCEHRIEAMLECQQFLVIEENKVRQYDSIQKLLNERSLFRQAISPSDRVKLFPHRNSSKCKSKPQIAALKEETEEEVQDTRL

O=C(O)CSc1cc(NS(=O)(=O)c2ccc(Br)cc2)c2ccccc2c1O
AC50 [1]: 28.4 µM (active)

O=C(CC(O)(C(F)(F)F)C(F)(F)F)Nc1ccc(Cl)c(Cl)c1
AC50 [2]: 2.27 µM (active)

O=C(CNc1cccc2ccccc12)N/N=C/c1ccc([N+](=O)[O-])o1
IC50 (HEK293): 15.8 µM (active)

O=C1NC(=S)N/C1=C/c1cc2c(cc1[N+](=O)[O-])OCO2
AC50 [3]: 30.4 µM (active)
EC50 (Hexokinase HKDC1): > 80 µM (inactive)
